Measured values reported in publication PMC12624955, “Exploring diarylheptanoid derivatives to target LIMK1 as potential agents against colorectal cancer” (Journal of Enzyme Inhibition and Medicinal Chemistry, 2025).

Legend:
Experiment in all cases: SelectScreen kinase panel, Z′-LYTE kinase assay
Format in all cases: biochemical
Settings in all cases: read-out: Inhibition percentage at 1 μM
[1] = target: T1, AKT1 (PKB alpha) (Homo sapiens, UniProt P31749)
T1 construct: purchased Thermo Fisher Scientific SelectScreen
Description: (§1) Kinase panel screening was carried out using the SelectScreen Kinase Assay (Thermo Fisher Scientific, Waltham, MA, USA). Three complementary assay formats were applied: the Z′-LYTE kinase assay, LanthaScreen Eu kinase binding assay, and Adapta Universal kinase assay. The kinases selected for this study and the corresponding assay formats are summarised in Supplementary Table S1.
(§2) The Z′-LYTE Kinase Assay (Thermo Fisher Scientific, Waltham, MA, USA) was used to evaluate selected kinases’ activity, according to the manufacturer’s instructions (https://www.thermofisher.com/tw/zt/home/industrial/pharma-biopharma/drug-discovery-development/target-and-lead-identification-and-validation/kinasebiology/kinase-activity-assays/z-lyte/z-lyte-reactivity-table.html). This endpoint assay quantifies kinase activity by detecting peptide substrate phosphorylation. Briefly, a 2× mixture of selected kinase and relevant substrate was prepared in kinase buffer (0.01% polyoxyethylene lauryl ether (BRIJ-35), 50 mM 4-(2-hydroxyethyl)-1-piperazineethanesulfonic acid (HEPES), pH 7.5, 1 mM ethylene glycol-bis(β-aminoethyl ether)-N,N,N′,N′-tetraacetic acid (EGTA), and 10 mM MgCl2). After 1 h incubation at room temperature, 5 μl of 1:128 diluted development reagent solution was added, followed by an additional 1 h incubation. Fluorescence was recorded using a multimode plate reader.

[2] = target: T2, AURKA (Aurora A) (Homo sapiens, UniProt O14965)
T2 construct: purchased Thermo Fisher Scientific SelectScreen
Description: as §1, §2

[3] = target: T3, BTK (Homo sapiens, UniProt Q06187)
T3 construct: purchased Thermo Fisher Scientific SelectScreen
Description: as §1, §2

[4] = target: T4, CAMK2B (CaMKII beta) (Homo sapiens, UniProt Q13554)
T4 construct: purchased Thermo Fisher Scientific SelectScreen
Description: as §1, §2

[5] = target: T5, CDK2/cyclin A (Homo sapiens, UniProt P24941)
T5 construct: purchased Thermo Fisher Scientific SelectScreen
Description: as §1, §2

[6] = target: T6, CSNK1D (CK1 delta) (Homo sapiens, UniProt P48730)
T6 construct: purchased Thermo Fisher Scientific SelectScreen
Description: as §1, §2

[7] = target: T7, CSNK1G1 (CK1 gamma 1) (Homo sapiens, UniProt Q9HCP0)
T7 construct: purchased Thermo Fisher Scientific SelectScreen
Description: as §1, §2

[8] = target: T8, DCAMKL1 (DCLK1) (Homo sapiens, UniProt O15075)
T8 construct: purchased Thermo Fisher Scientific SelectScreen
T8 sequence (O15075 whole entry): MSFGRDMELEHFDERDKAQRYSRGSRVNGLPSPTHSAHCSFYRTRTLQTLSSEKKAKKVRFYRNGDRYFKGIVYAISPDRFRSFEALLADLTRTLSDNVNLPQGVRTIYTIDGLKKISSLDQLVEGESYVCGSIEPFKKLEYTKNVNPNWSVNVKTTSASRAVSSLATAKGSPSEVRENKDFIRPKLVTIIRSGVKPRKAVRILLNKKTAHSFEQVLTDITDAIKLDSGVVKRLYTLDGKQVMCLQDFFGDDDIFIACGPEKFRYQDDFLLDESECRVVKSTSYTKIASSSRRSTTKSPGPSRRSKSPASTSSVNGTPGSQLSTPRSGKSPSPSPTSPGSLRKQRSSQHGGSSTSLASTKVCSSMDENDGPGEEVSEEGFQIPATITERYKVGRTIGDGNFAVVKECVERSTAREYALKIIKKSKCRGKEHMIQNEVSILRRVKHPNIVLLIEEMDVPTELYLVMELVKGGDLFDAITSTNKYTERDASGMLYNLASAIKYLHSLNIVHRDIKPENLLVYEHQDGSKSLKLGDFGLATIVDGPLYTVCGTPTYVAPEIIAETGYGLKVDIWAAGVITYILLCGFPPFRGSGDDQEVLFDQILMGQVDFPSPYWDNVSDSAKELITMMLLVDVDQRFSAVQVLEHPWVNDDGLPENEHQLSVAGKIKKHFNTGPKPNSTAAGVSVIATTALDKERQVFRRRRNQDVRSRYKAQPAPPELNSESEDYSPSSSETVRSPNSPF
Description: as §1, §2

[9] = target: T9, DYRK1B (Homo sapiens, UniProt Q9Y463)
T9 construct: purchased Thermo Fisher Scientific SelectScreen
Description: as §1, §2

[10] = target: T10, ERBB4 (HER4) (Homo sapiens, UniProt Q15303)
T10 construct: purchased Thermo Fisher Scientific SelectScreen
Description: as §1, §2

[11] = target: T11, FGFR1 (Homo sapiens, UniProt P11362)
T11 construct: purchased Thermo Fisher Scientific SelectScreen
Description: as §1, §2

[12] = target: T12, HIPK1 (Myak) (Homo sapiens, UniProt Q86Z02)
T12 construct: purchased Thermo Fisher Scientific SelectScreen
Description: as §1, §2

[13] = target: T13, IKBKB (IKK beta) (Homo sapiens, UniProt O14920)
T13 construct: purchased Thermo Fisher Scientific SelectScreen
T13 sequence (O14920 whole entry): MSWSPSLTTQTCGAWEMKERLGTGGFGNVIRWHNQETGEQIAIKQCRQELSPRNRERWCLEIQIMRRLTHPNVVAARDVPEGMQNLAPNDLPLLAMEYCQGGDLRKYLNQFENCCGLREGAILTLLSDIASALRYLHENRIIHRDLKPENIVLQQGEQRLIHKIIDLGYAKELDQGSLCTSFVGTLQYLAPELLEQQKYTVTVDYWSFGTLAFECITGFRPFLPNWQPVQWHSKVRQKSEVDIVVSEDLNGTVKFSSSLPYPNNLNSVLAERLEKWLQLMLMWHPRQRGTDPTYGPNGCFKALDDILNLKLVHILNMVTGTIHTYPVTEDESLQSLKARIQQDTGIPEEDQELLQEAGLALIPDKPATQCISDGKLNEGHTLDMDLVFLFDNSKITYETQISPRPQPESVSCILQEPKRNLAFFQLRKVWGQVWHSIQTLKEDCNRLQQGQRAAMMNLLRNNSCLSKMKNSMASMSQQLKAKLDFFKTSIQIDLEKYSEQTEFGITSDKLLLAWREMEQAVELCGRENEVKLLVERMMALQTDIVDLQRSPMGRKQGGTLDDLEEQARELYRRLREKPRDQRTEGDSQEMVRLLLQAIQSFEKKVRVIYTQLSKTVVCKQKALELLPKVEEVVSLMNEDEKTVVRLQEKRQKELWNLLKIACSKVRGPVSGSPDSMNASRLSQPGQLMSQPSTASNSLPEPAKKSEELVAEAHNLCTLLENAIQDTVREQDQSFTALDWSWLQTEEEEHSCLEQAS
Description: as §1, §2

[14] = target: T14, IRAK4 (Homo sapiens, UniProt Q9NWZ3)
T14 construct: purchased Thermo Fisher Scientific SelectScreen
Description: as §1, §2

[15] = target: T15, LCK (Homo sapiens, UniProt P06239)
T15 construct: purchased Thermo Fisher Scientific SelectScreen
Description: as §1, §2

[16] = target: T16, MAP3K9 (MLK1) (Homo sapiens, UniProt P80192)
T16 construct: purchased Thermo Fisher Scientific SelectScreen
Description: as §1, §2

[17] = target: T17, MAPK3 (ERK1) (Homo sapiens, UniProt P27361)
T17 construct: purchased Thermo Fisher Scientific SelectScreen
T17 sequence (P27361 whole entry): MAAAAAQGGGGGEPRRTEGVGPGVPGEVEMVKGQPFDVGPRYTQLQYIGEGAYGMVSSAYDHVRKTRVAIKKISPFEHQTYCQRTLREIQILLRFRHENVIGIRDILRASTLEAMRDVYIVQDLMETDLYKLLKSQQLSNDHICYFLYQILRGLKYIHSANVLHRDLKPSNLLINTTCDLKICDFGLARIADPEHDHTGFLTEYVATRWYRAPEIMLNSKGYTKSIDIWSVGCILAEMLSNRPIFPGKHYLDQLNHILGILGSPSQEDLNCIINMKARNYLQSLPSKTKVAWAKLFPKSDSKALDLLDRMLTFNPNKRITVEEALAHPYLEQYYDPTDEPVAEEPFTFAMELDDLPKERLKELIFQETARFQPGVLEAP
Description: as §1, §2

[18] = target: T18, MARK3 (Homo sapiens, UniProt P27448)
T18 construct: purchased Thermo Fisher Scientific SelectScreen
Description: as §1, §2

[19] = target: T19, MINK1 (Homo sapiens, UniProt Q8N4C8)
T19 construct: purchased Thermo Fisher Scientific SelectScreen
T19 sequence (Q8N4C8 whole entry): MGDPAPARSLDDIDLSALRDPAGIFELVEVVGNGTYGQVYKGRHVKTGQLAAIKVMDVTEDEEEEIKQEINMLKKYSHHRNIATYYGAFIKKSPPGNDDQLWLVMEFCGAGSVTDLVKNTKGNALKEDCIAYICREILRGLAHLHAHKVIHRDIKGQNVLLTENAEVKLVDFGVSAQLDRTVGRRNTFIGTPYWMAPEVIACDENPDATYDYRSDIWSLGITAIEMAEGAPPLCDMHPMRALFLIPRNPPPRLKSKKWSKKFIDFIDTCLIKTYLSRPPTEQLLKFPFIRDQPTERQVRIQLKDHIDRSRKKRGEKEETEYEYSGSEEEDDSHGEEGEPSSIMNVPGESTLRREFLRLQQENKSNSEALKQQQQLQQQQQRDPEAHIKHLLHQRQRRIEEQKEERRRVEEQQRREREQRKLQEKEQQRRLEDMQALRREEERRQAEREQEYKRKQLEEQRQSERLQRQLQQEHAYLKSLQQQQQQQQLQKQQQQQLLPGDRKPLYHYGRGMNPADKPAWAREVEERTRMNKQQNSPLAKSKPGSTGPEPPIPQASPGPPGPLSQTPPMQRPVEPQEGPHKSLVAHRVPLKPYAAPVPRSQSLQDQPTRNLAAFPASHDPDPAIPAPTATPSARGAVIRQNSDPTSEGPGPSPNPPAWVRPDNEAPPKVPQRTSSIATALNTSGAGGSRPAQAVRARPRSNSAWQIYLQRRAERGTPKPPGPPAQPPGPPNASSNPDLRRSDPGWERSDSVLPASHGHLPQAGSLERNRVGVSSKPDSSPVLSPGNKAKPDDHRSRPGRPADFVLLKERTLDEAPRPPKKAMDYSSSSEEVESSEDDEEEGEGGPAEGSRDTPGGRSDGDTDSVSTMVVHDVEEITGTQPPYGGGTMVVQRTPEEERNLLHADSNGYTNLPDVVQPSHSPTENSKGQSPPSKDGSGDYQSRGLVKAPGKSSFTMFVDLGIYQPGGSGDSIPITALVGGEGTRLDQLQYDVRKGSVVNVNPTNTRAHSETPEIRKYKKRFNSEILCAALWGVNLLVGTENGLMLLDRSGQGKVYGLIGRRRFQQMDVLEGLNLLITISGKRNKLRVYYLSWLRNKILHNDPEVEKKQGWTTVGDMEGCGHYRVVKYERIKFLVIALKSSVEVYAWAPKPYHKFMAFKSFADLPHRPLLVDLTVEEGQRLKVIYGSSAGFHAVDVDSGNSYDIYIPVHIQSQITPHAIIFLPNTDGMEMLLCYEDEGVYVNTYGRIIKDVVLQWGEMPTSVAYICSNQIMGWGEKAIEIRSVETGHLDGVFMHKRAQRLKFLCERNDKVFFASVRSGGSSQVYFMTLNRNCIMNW
Description: as §1, §2

[20] = target: T20, MKNK1 (MNK1) (Homo sapiens, UniProt Q9BUB5)
T20 construct: purchased Thermo Fisher Scientific SelectScreen
T20 sequence (Q9BUB5 whole entry): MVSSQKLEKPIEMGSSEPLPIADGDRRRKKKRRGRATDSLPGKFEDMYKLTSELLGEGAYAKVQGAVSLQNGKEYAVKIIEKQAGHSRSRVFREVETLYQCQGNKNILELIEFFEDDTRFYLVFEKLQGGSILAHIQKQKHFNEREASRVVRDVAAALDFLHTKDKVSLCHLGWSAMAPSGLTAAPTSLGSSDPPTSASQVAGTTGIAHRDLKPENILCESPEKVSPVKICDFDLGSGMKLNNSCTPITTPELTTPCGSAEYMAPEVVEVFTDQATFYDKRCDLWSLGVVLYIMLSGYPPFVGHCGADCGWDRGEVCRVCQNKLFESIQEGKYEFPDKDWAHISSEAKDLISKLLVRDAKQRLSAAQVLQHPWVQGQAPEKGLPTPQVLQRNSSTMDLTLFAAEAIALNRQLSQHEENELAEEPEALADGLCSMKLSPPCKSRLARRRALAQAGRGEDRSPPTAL
Description: as §1, §2

[21] = target: T21, NEK1 (Homo sapiens, UniProt Q96PY6)
T21 construct: purchased Thermo Fisher Scientific SelectScreen
Description: as §1, §2

[22] = target: T22, NTRK1 (TRKA) (Homo sapiens, UniProt P04629)
T22 construct: purchased Thermo Fisher Scientific SelectScreen
Description: as §1, §2

[23] = target: T23, PAK2 (PAK65) (Homo sapiens, UniProt Q13177)
T23 construct: purchased Thermo Fisher Scientific SelectScreen
Description: as §1, §2

[24] = target: T24, PIM1 (Homo sapiens, UniProt P11309)
T24 construct: purchased Thermo Fisher Scientific SelectScreen
Description: as §1, §2

[25] = target: T25, PLK2 (Homo sapiens, UniProt Q9NYY3)
T25 construct: purchased Thermo Fisher Scientific SelectScreen
T25 sequence (Q9NYY3 whole entry): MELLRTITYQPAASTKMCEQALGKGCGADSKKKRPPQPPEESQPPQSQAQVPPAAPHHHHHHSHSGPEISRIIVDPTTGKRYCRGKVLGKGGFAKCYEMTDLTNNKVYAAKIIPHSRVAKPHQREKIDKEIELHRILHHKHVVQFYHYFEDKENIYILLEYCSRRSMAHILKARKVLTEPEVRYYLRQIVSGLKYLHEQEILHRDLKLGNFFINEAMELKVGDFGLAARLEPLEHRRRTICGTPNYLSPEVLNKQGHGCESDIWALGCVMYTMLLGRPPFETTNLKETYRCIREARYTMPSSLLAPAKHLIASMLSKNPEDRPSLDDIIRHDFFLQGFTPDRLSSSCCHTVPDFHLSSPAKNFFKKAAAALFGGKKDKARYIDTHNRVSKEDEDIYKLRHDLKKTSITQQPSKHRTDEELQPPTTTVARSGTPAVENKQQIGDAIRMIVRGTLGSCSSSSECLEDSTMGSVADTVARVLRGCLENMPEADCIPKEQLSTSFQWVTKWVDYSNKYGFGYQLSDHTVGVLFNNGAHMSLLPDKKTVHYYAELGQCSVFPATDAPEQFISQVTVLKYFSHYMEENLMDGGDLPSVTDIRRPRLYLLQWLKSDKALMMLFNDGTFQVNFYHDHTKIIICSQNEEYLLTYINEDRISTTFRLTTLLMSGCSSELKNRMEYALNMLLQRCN
Description: as §1, §2

[26] = target: T26, PRKACA (PKA) (Homo sapiens, UniProt P17612)
T26 construct: purchased Thermo Fisher Scientific SelectScreen
Description: as §1, §2

[27] = target: T27, PRKCA (PKC alpha) (Homo sapiens, UniProt P17252)
T27 construct: purchased Thermo Fisher Scientific SelectScreen
Description: as §1, §2

[28] = target: T28, ROCK1 (Homo sapiens, UniProt Q13464)
T28 construct: purchased Thermo Fisher Scientific SelectScreen
Description: as §1, §2

[29] = target: T29, RPS6KA3 (RSK2) (Homo sapiens, UniProt P51812)
T29 construct: purchased Thermo Fisher Scientific SelectScreen
Description: as §1, §2

[30] = target: T30, SRC (Homo sapiens, UniProt P12931)
T30 construct: purchased Thermo Fisher Scientific SelectScreen
T30 sequence (P12931 whole entry): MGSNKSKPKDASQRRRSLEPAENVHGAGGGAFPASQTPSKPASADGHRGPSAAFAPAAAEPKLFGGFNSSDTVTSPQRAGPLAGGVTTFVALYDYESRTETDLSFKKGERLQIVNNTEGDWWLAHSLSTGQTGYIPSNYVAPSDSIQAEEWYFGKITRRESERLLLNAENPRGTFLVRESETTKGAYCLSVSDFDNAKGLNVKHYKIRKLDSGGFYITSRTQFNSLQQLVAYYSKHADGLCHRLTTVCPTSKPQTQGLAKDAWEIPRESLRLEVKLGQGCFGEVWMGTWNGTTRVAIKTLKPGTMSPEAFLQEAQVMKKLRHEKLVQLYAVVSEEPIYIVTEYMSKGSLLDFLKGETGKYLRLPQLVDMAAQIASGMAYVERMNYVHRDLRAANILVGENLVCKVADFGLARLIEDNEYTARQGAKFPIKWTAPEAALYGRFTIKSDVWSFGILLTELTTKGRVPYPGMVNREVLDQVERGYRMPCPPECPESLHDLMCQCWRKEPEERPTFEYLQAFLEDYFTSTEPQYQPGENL
Description: as §1, §2

[31] = target: T31, STK3 (MST2) (Homo sapiens, UniProt Q13188)
T31 construct: purchased Thermo Fisher Scientific SelectScreen
Description: as §1, §2

inhibition at 1 µM [1]: 2%
inhibition at 1 µM [2]: 18%
inhibition at 1 µM [3]: 19%
inhibition at 1 µM [4]: 19%
inhibition at 1 µM [5]: 0%
inhibition at 1 µM [6]: 7%
inhibition at 1 µM [7]: 4%
inhibition at 1 µM [8]: 1%
inhibition at 1 µM [9]: 4%
inhibition at 1 µM [10]: 15%
inhibition at 1 µM [11]: 3%
inhibition at 1 µM [12]: 2%
inhibition at 1 µM [13]: 8%
inhibition at 1 µM [14]: 4%
inhibition at 1 µM [15]: -6%
inhibition at 1 µM [16]: 2%
inhibition at 1 µM [17]: 6%
inhibition at 1 µM [18]: 6%
inhibition at 1 µM [19]: 13%
inhibition at 1 µM [20]: 8%
inhibition at 1 µM [21]: -1%
inhibition at 1 µM [22]: -7%
inhibition at 1 µM [23]: 4%
inhibition at 1 µM [24]: 12%
inhibition at 1 µM [25]: 16%
inhibition at 1 µM [26]: 5%
inhibition at 1 µM [27]: 13%
inhibition at 1 µM [28]: 10%
inhibition at 1 µM [29]: 8%
inhibition at 1 µM [30]: 0%
inhibition at 1 µM [31]: 0%
SMILES: O=C(/C=C/c1ccc(O)c(O)c1)CCCCn1ccc2c(O)cccc21 [Compound 13a, (E)-1-(3,4-dihydroxyphenyl)-7-(4-hydroxy-1H-indol-1-yl)hept-1-en-3-one]
